3 molecules from patent US10793568B2, “Hormone receptor modulators for treating metabolic conditions and disorders” (ARDELYX, INC., priority 2016, dated 2020) can be followed below.

Each structure is given as a SMILES string.

Assay [1] addresses ligand binding domain of human FXR (Homo sapiens (Human), UniProt Q96RI1). Nature of the assay: FXR ligand binding assay (LanthaScreen TR-FRET, SRC2-2 peptide recruitment). Conditions: for pEC50: -log EC50, concentration required to produce 50% activation; for Emax: extent of activation relative to GW4064, read-out: % Efficacy.
Assay [2] concerns the target human Farnesoid X receptor ligand-binding domain/Gal4 DNA binding domain chimera (Homo sapiens (Human), UniProt Q96RI1). In words: Cell-based assay of FXR activation (FXR-UAS-bla HEK 293T beta-lactamase reporter). The following applies: cellular FXR beta-lactamase reporter assay; for Emax: HEK-293T, extent of activation relative to GW4064, read-out: % Efficacy; for EC50: FXR-UAS-bla HEK 293T cells, 16 h, pEC50 = -log EC50. The method in brief:
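HEK 293T cells stably expressing a Gal4-fused human FXR LBD and a UAS-driven beta-lactamase reporter were incubated with serially diluted compounds for 16 h at 37 °C in phenol red-free DMEM with 2% charcoal-stripped FBS. CCF4 FRET read-out: excitation 409 nm, emission 447 nm. pEC50 comes from a 3-parameter logistic fit, and efficacy is given as % of GW4064.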
Background: In a reporter assay the amount or activity of a reporter protein is the signal.

The next assay relates to DSS colitis mice. Nature of the assay: Restoration of epithelial barrier integrity in DSS colitis. It is filed as in vivo, C57Bl/6 mice. Conditions: 30 mg/kg once daily oral gavage. The protocol:
Colonic histopathology was assessed in mice administered dextran sodium sulfate (DSS) to assess the ability of selected example compounds to restore epithelial barrier integrity in a model of colitis presenting with epithelial erosions. Approximately seven-week old, female, C57Bl/6 mice were purchased from Envigo (Livermore, Calif.), were housed 6 per cage and acclimated for at least 2 weeks before study initiation. Animals were fed standard laboratory rodent chow Harlan Teklad Global 2018 (Maddison, Wis.). Mice had ad libitum access to food and water for the duration of the study and were maintained in a temperature and humidity controlled room on a standard light/dark cycle of 6 AM to 6 PM. DSS was prepared at 1.5% (MW 35-50 kDa, Lot # M7191, MP Biomedical) in filtered drinking water and provided to the mice from Day 0 to Day 7 (n=12/group). The DSS water was replaced once during the study on Day 3 or 4 with fresh DSS water. One cohort of mice (n=6) was provided drinking water without DSS and severed as the non-diseased control group. Vehicle (1% methylcellulose in water, 10 mL/kg) or varying doses of test compound were administered once daily by oral gavage beginning on Day −3 through Day 8. FXR agonist compounds of the invention, FXR1 and FXR2, were tested at doses of 0.3 and 1 mg/kg and compared to known FXR agonist obeticholic acid (OCA) administered at 30 mg/kg. Body weight and food and water intake were measured daily from the initiation of DSS administration. Disease activity index (DAI) scoring was performed on Day 9 prior to necropsy. Stool consistency, blood in stool, incidence of rectal prolapse, and body condition was assessed according to the scoring system in Table 25 and summed to a total DAI score:
Following DAI scoring on Day 9 and under isoflurane anesthesia mice were exsanguinated via cardiac puncture and euthanized by thoracotomy, followed by cervical dislocation. The entire colon (from the cecum to the anus) was removed, and the length recorded. The luminal contents were removed by flushing with ice-cold PBS using a blunt needle attached to a syringe and the colon was blotted dry and weighed. For each treatment group, half of the distal colon samples were prepared for cytokine analysis and half were prepared for histological evaluation. For cytokine measurement, the distal ⅓ of the colon was excised and weighed, placed into 5 mL Eppendorf tubes, frozen on dry ice and stored at −80° C., until analysis. Inflammatory cytokines were measured in colon tissue using a V-Plex custom kit (Proinflammatory Panel 1 (mouse), Mesoscale Technology). For histology, the colon was rolled by grasping the distal end and rotating to generate a spiral with a third dimension. The colon was then placed in a tissue cassette, and into a jar of 10/o buffered formalin phosphate at room temperature for at least 24 hours to ensure tissue fixation, at which point the formalin was replaced with 70% ethanol. […] Three levels of the distal colon were assigned a colitis score and the average colitis score for each animal was derived by summing the colitis scores for the three levels of colon evaluated and dividing the sum by three. The average colitis score for each treatment group was derived by summing the colitis scores for all levels of colon evaluated in the group and dividing the sum by the total number of levels of colon evaluated for that group. The presence or absence of mucosal defects (erosions or ulcerations) was also recorded for each level of colon. […]

ligand binding domain of human FXR, sequence (Q96RI1 262-486): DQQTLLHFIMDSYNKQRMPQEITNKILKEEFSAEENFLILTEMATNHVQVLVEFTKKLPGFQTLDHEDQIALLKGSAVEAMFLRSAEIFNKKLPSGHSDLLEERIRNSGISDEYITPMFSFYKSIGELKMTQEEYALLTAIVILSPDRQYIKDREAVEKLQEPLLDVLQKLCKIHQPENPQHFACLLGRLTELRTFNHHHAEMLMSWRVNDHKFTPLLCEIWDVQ
human Farnesoid X receptor ligand-binding domain/Gal4 DNA binding domain chimera, sequence (Q96RI1 262-486, change not shown): as the sequence (Q96RI1 262-486) above
human Farnesoid X receptor ligand-binding domain/Gal4 DNA binding domain chimera, sequence (P04386 1-147 partner): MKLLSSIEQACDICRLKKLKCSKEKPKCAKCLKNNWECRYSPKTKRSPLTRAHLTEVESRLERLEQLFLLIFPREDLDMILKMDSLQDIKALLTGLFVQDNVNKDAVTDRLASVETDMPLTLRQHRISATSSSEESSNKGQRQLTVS

One may read the pEC50 as −log10 of the EC50, conventionally taken in molar units. A high value points to a low EC50. As usually defined, the EC50 is the concentration at which the effect is half-maximal. Read a low EC50 as greater potency. With `O=C(NCCS(=O)(=O)O)c1ccc(N2C(=O)[C@@H]3C[C@H]2C[C@H]3OCc2c(-c3c(Cl)cccc3Cl)noc2C2CC2)cc1` [Compound I-359, 2-({4-[(1S,4R,5R)-5-{[5-cyclopropyl-3-(2,6-dichlorophenyl)-1,2-oxazol-4-yl]methoxy}-3-oxo-2-azabicyclo[2.2.1]heptan-2-yl]phenyl}formamido)ethane-1-sulfonic Acid], in assay [1], the negative logarithm of the EC50 (pEC50) was determined as 8.4 and the Emax was determined as 148%. Moreover, in assay [2], the Emax was 126% and the midpoint of the response, the EC50, lay at 398 nM.
Take `C[C@@H]1[C@@H]2C[C@@H](C[C@H]2OCc2c(-c3c(Cl)cccc3Cl)noc2C2CC2)N1c1ccc(C(=O)O)cc1` [Compound I-360, 4-[(1S,3R,4S,5R)-5-[[5-cyclopropyl-3-(2,6-dichlorophenyl)-1,2-oxazol-4-yl]methoxy]-3-methyl-2-azabicyclo[2.2.1]heptan-2-yl]benzoic acid]: in assay [1], the pEC50 was determined as 8.6 and the Emax worked out at 117%. In assay [2], the Emax turned out to be 102% and a half-maximal effect (EC50) was put at 0.794 nM.
Regarding `CC[C@H]1[C@@H](O)[C@@H]2[C@H](CC[C@]3(C)[C@@H]([C@H](C)CCC(=O)O)CC[C@@H]23)[C@@]2(C)CC[C@@H](O)C[C@@H]12` [OCA, obeticholic acid], the DAI score entry in the assay on DSS colitis mice (Day 9, vs DSS vehicle) is given as “did not significantly affect body weight nor DAI score”. Further, in the assay with DSS colitis mice (vs DSS vehicle), the “body weight (DSS-induced reduction)” value is on record as “did not significantly affect body weight”; the “epithelial erosions (mucosal defects) observed histologically” value is on record as “did not reduce the number of epithelial erosions”; the histology colitis score entry was “did not significantly affect histology colitis score”; the “inflammatory cytokines IL-6, IL-1β, TNFα, IFNγ and KC/Gro in the colon” value is “only significantly reduced the levels of IL-1β, TNFα and KC/Gro”.
